Patent US7977341B2, “Substituted isoxazoles as fungicides” (Syngenta Limited, priority 2004, dated 2011)
Like-named read-outs stand apart in the source and are kept apart here.

What was measured:
[1] = tested on: Phytophthora infestans; assay: microbe, parasite or virus in culture; format: cell-based; details: read-out: IC50 P. infestans
[2] = tested on: Septoria tritici; assay: Fungicidal activity, microtiter plate format; format: cell-based
[3] = tested on: Stagonospora nodorum; assay: Fungicidal activity, microtiter plate format; format: cell-based; details: for IC50: Parastagonospora nodorum, read-out: IC50 S. nodorum
[4] = tested on: Botrytis cinerea; assay: Fungicidal activity, microtiter plate format; format: cell-based
[5] = tested on: Puccinia recondita; assay: Cereal field trial on soft red winter wheat (leaf rust); format: in vivo; details: wheat cultivar Sisson
Protocol: A field trial of Compound 4 was conducted on soft red winter wheat cultivar Sisson. Very dry weather gave rise to a low natural incidence of leaf rust (Puccinia recondita: PUCCRT) late in the trial. Compound 4 was applied as a 9.5% active ingredient (weight/weight) emulsifiable concentrate of the following formula (each weight/weight): 9.5% Compound 4, 9.5% m-Pyrol, 65% Surfadone LP-100, 6% Surfadone LP-300, 5% Toximul 3463F, and 5% Toximul 3464F. Rates of Compound 4 application were as follows (grams active ingredient per hectare: g a.i./ha): 140, 280 and 421.

[6] = tested on: Sclerotinia homoeocarpa; assay: Turf trial on creeping bentgrass (dollar spot)
Protocol: A fungicide trial was conducted on a 15-yr-old sward of creeping bentgrass v. Penncross during the spring. […] Treatments were arranged as plots (0.5×1.0 m) in a randomized complete block design with four replications. […] The turfgrass was inoculated with autoclaved tall fescue seed infested with Sclerotinia homoeocarpa (common name: dollar spot) six hours after application of the initial preventive treatments. The plots received approximately 0.24 inches of irrigation water daily at 1700 hour to ensure nightly foliar wetness for infection. The Horsfall-Barratt rating scale was used to visually estimate disease severity at approximately 7-day intervals from the initial application date. Turfgrass quality was assessed using a 0-9 scale where 0=a necrotic, thin foliar canopy and 9=a dark green, dense foliar canopy. Disease and quality values were subjected to analysis of variance and means were statistically separated using the Scott-Knott cluster analysis procedure.

[7] = fungal growth on agar, 20° C., 3-5 days, C.V. class in parentheses

SMILES	IC50 [1] [µM]	IC50 S. tritici [2]	IC50 S. tritici [2, 7]	IC50 S. nodorum [3, 7]	IC50 B. cinerea [4, 7]	further results
C[Si](C)(C)c1onc(-c2c(Cl)cccc2Cl)c1C(O)c1cccnc1 (stereo not shown) [Compound 1, 3-(2,6-Dichlorophenyl)-4-[(3-pyridyl)hydroxymethyl]-5-trimethylsilylisoxazole]	> 100	C (b)	–	–	–	IC50 [3]: > 100 µM; IC50 ([4]; Botrytis cinerea, read-out: IC50 B. cinerea): > 100 µM
C[Si](C)(C)c1onc(-c2ccc(Cl)cc2Cl)c1C(O)c1cccnc1 (stereo not shown) [Compound 3, 3-(2,4-Dichlorophenyl)-4-[(3-pyridyl)hydroxymethyl]-5-trimethylsilylisoxazole]	> 100	A (b)	–	–	–	IC50 S. nodorum [3]: B (d); IC50 B. cinerea [4]: B (b)
OC(c1cccnc1)c1c(-c2ccc(Cl)cc2Cl)noc1-c1cccc(Cl)c1 (stereo not shown) [Compound 4, 5-(3-Chlorophenyl)-3-(2,4-dichlorophenyl)-4-[(3-pyridyl)hydroxymethyl]-isoxazole]	> 100	–	A (c)	A (b)	B (d)	Control of leaf rust incidence ([5]; 9.5% emulsifiable concentrate, 140, 280 and 421 g a.i./ha, low natural incidence): good control of the rust incidence; Yield enhancement ([5]; highest rate of Compound 4): Yield enhancement was observed; Dollar spot disease control (Horsfall-Barratt disease severity) ([6]; creeping bentgrass v. Penncross, Compound 4 as 25% wetable powder at 2.2, 4.4, 8.8 g a.i./1000 sq ft, mean disease <3.0% acceptable): effective control on dollar spot during most of the trial period; Turfgrass quality (0-9 scale) ([6]; creeping bentgrass, ratings >6.0 acceptable): Highest quality ratings
CC(C)(C)c1onc(-c2ccc(Cl)cc2Cl)c1C(O)c1cccnc1 (stereo not shown) [Compound 7, 3-(2,4-Dichlorophenyl)-5-(1,1-dimethylethyl)-4-[(3-pyridyl)hydroxymethyl]-isoxazole]	> 100	–	–	–	B (c)	IC50 ([2]; Zymoseptoria tritici, fungal growth on agar, 20° C., 3-5 days, C.V. class in parentheses, read-out: IC50 S. tritici): > 100 µM; IC50 [3, 7]: > 100 µM
OC(c1cccnc1)c1c(-c2ccc(Cl)cc2Cl)noc1-c1cccs1 (stereo not shown) [Compound 12, 3-(2,4-Dichlorophenyl)-4-[(3-pyridyl)hydroxymethyl]-5-(2-thienyl)isoxazole]	> 100	–	A (b)	B (d)	B (c)	–
OC(c1cccnc1)c1c(-c2ccc(Cl)cc2Cl)noc1-c1ccsc1 (stereo not shown) [Compound 13, 3-(2,4-Dichlorophenyl)-4-[(3-pyridyl)hydroxymethyl]-5-(3-thienyl)isoxazole]	> 100	–	A (b)	B (d)	B (b)	–
